Four sequences from paper PMC6611213, “Key Features Relevant to Select Antigens and TCR From the MHC-Mismatched Repertoire to Treat Cancer” (Frontiers in Immunology, 2019) can be followed below.

The test system of test [1] is HLA-B7 monomers. In words: Kinetic stability of p-MHC complexes at 37°C (DSF). Particulars: DSF at constant 37°C; for Half-life 37°C: pH 7.4, SYPRO orange, two-phase decay, slowest rate, mean of quadruplicates (n=2). The class given is binding, human. Here is the method: (§1) (A) Thermal shift assay of MPO-peptides in comparison to pp65 and MPO2+L1. Boltzmann fitting was used to determine V50 values (half-maximal denaturation) for each p-MHC complex after gradual heating from 21°C to 95°C. The mean of quadruplicates is shown (n=2). (B) Measurement of kinetic stability of indicated p-MHC complexes in comparison to pp65 and MPO2+L1 at constant temperature of 37°C. For the determination of half-maximal decay of p-MHC complexes, the slowest constant rates were used after fitting the fluorescence values with an exponential two-phase decay equation. The mean of quadruplicates is shown (n=2). (A,B) The fluorescence was measured by monitoring the intensity of SYPRO orange protein dye binding to hydrophobic core regions of unfolded p-MHC-complexes. (C) Occurrence of the MPO2 and MPO5 peptides on the surface of indicated AML cell lines with endogenous HLA-B7 expression using the heavy labelled Leu7 counterpart for detection. Logarithmic intensities of MPO peptide surface presentation for MPO peptides are shown in duplicates. MPO5 peptides are depicted in blue, MPO2 peptides are depicted in green (n=2).
(§2) For differential scanning fluorimetry (DSF), i.e. thermal shift assay and kinetic stability measurement, MPO2-, MPO2+L1-, MPO5- or pp65(417-426) peptide exchanged HLA-B7 monomers were used in a concentration of 2µM and analyzed on a StepOnePlus RT-PCR instrument (Applied Biosystems, Foster City, CA, USA), respectively. Samples were measured in a final volume of 20µl in MicroAmp^R Fast Optical 96-well reaction plates (Applied Biosystems) containing 150mM NaCl, 10mM HEPES (pH 7.4), 3mM EDTA and 10x SYPRO orange (Thermo Fisher Scientific) as described previously (Hellman et al., 2016). Analysis was done following the recommendations described elsewhere (Niesen et al., 2007) using the Microsoft Excel-based tool “DSF Analysis v3.0.2” available under the following link (ftp://ftp.sgc.ox.ac.uk/pub/biophysics). For accurate ﬁtting and calculation of V50-values, the Boltzmann equation was performed using GraphPad Prism (version 7.04, San Diego, USA). The kinetic stability was analyzed at constant 37°C and fluorescence was measured every 5 minutes. The fluorescent data were fit to a two-phase decay function and slowest rates for half-lives were calculated using GraphPad Prism (version 7.04, San Diego, USA).

Test [2] deals with HLA-B7 monomers. In words: Thermal shift assay (DSF) of p-MHC complexes. The class given is binding, human. Particulars: for Thermal stability V50: 2 µM monomer, 150 mM NaCl, 10 mM HEPES pH 7.4, 3 mM EDTA, SYPRO orange, 21°C to 95°C, mean of quadruplicates (n=2); for thermal V50: Boltzmann fitting, rounded. The protocol:
as §1, §2

Test [3] deals with HL60, ML2, NB4 and SiG-M5 AML cell lines. In words: Cytokine secretion by TCR-transduced CD8+ T cells to AML cell lines. Type of test: cell-based, human. Particulars: AML cell lines pulsed with MPO2 or MPO5.
Procedure: The cytotoxic reactivity of T cells was tested by flow cytometry making use of changes in signal of the HLA-B7eGFP-transgenic target cells during co-cultivation for different time periods and effector to target ratios. For relative quantification of cytotoxicity, AccuCheck counting beads were used according to the manufacturer's protocol (Thermo Fisher Scientific) and the results were normalized to either non-TCR-transduced T cells or irrelevant T-cell clones. The supernatants of the co-cultivation were used to measure IFN-γ by ELISA (BD) or GM-CSF, IFN-γ, and lL-2 multiplexed by flow cytometry (Miltenyi Biotec) according to the manufacturer's instructions. […] If not stated otherwise, the effector to target ratio was set to 1:1 for the co-incubation assays using 20,000 cells in each fraction.
Half-maximal IFN-γ release was calculated using logarithmic dose-response fitting algorithm with variable slope (EC50) of GraphPad Prism. Mean ± SD of triplicates of one representative experiment are shown (n = 6). […] 10.000 effector cells were used in a ratio of 1:1. Standard deviations of the mean of triplicates are shown (n = 4). (Gi−iv) Cytokine secretion (GM-CSF, IFN-γ, and IL-2) measured by flow cytometry based multiplex analysis in response to selected AML cell lines is shown in triplicates either unpulsed or additionally pulsed with MPO2 or MPO5.
The test system of test [4] is HLA-B7 monomers. In words: UV-mediated peptide exchange, B2M ELISA. The class given is binding, human. To be noted: for Stability after UV-peptide exchange, V50: Pooled values of at least three independent experiments, 0–200 μM peptide, UV 366 nm, B2M ELISA, Boltzmann fit; for HLA-stabilization potential: UV-peptide exchange, titrated peptide. Here is the method: Biotinylated HLA-B7 monomers loaded with the UV-cleavable epitope AARG(J)TLAM were created as previously described ([33]). Peptide-HLA stability was measured using the protocol on the basis of Rodenko et al. ([34]). In brief, HLA-B7 monomers loaded with the UV-sensitive peptide were exposed to UV light (366 nm) in the presence of graded amounts (0–200 μM) of MPO peptides. Afterward 1:10 dilutions of the UV-exchanged monomers were adhered via streptavidin to the bottom of a 96-well plate (F96 maxisorp nunc-immune plate, Thermo scientific) and a beta-2-microglobulin ELISA was performed. The OD measurements were performed on a Tecan Sunrise multi-well-reader using Magellan software (version 7.2).
(§3) An E/T ratio of 1:1 was used. IFN-γ secretion of the supernatants after co-cultivation was measured by IFN-γ ELISA. […] (B) Beta-2-microglobulin (B2M)-ELISA of UV-mediated peptide exchanged HLA-B7 monomers. V50 values of a Boltzmann fitting for each MPO-peptide was determined by the optical density of B2M after degraded amounts of MPO-peptides were used for HLA-stabilization. […] (C) Pooled results of (B) for MPO5 (n = 4), MPO2 (n = 4), and MPO2+L1 (n = 3). Significance is calculated by Mann-Whitney Test: *p = 0.0286. TEXT PRINTED IN THE PICTURE: (B) MPO5: V50 = -5,204 | (B) MPO2: V50 = -4,610 | (B) MPO2+L1: V50 = -4,143
To verify the stability results of all three MPO-peptides experimentally, we performed HLA-B7 UV-peptide exchange assays with titrated amounts of peptide added to a constant concentration of HLA-B7 monomers bound to a UV-sensitive peptide. […] Thus, our results oppose the results of the NetMHC stability prediction. As a second experiment, we performed thermal shift assays for the MPO peptides to characterize their potential to prevent denaturation of the HLA-complex with ascending temperature (Supplementary Figure 3A; Table 1).

In another test the test system is AML cell lines. In words: Targeted MS of surface-presented peptides. Details: species or system human. Particulars: targeted MS with heavy labelled peptides; MPO2 compared to MPO5 (n=2). Here is the method: as §1, with “MPO5 peptides are depicted in blue, MPO2 peptides are depicted in green (n=2).” left out
The MPO2 and MPO5 ligands were identified using an immunopeptidomic approach as previously described (Klar et al., 2014). For the targeted identification and relative quantification of both peptides, HLA-I peptides were purified from 5x10^8 cells of each cell line as previously described (Bassani-Sternberg et al., 2016). […]

In a further test the test system is HLA-B7+ LCL1 cell line. In words: IFN-γ release by TCRF5.4-transduced PBMC to peptide-pulsed LCL1. Type of test: cell-based, human. Particulars: peptide-pulsed LCL1, E/T 1:1, ELISA, triplicates (n = 2). Here is the method: as §3

With NPRWDGERL [MPO5], in the test on HLA-B7 monomers [1], the “Half-life (decay of HLA-complexes) 37°C” value turned out to be 4.1 h and the “Half-life 37°C” value was found to be 4.1 h. In the test on HLA-B7 monomers [2], the “Thermal stability V50” value turned out to be 46.4 °C and the “thermal V50” value was found to be 46 °C. Moreover, the “effect of additional peptide pulsing on cytokine secretion” value in test [3] is listed as “did not have a major impact on cytokine secretion”. In the test on HLA-B7 monomers [4], the “Stability after UV-peptide exchange, V50” value was −5.535 log10 M and the “HLA-stabilization potential” value is recorded as “almost one log increased potential to rescue the HLA-B7 molecule”.

With TPAQLNVL [MPO2], in the test with AML cell lines, the “surface presentation on AML cell lines” value was “markedly lower presented on the surface of all AML cells lines compared to MPO5”. In the test on HLA-B7 monomers [1], the “Half-life (decay of HLA-complexes) 37°C” value worked out at 3.5 h and the “Half-life 37°C” value turned out to be 3.5 h. Moreover, in the test on HLA-B7 monomers [2], the “Thermal stability V50” value is 46.3 °C and the “thermal V50” value was determined as 46 °C. Moreover, the “effect of additional peptide pulsing on cytokine secretion” value in test [3] is reported as “these differences could be compensated by additional MPO2 peptide pulsing”. For the same sequence, the “Stability after UV-peptide exchange, V50” value in the test on HLA-B7 monomers [4] is on record as −4.671 log10 M.

On to LTPAQLNVL [MPO2+L1], for which the “Half-life 37°C” value with HLA-B7 monomers [1] turned out to be 2.9 h. Also, in the test on HLA-B7 monomers [2], the “Thermal stability V50” value was determined as 44.0 °C and the “thermal V50” value stood at 44 °C. The “IFN-γ secretion by TCRF5.4-transduced T cells” value in the test with HLA-B7+ LCL1 cell line was “detected IFN-γ secretion”. In the test with HLA-B7 monomers [4], the “Stability after UV-peptide exchange, V50” value was −3.728 log10 M and the “HLA-stabilization potential” value is “lowest potential for HLA-stabilization”.

“TPRVTGGGAM [pp65, pp65(417-426) control peptide […], reference compound]”: the “Half-life 37°C” value with HLA-B7 monomers [1] was found to be 5.6 h. In the test with HLA-B7 monomers [2], the “Thermal stability V50” value was 50.0 °C and the “thermal V50” value stood at 50 °C.
